By Solubility is commonly meant the dissolved amount per volume that the medium holds. A word on the IC50: it is the concentration needed to halve the response being measured. Usually Cmax stands for the maximum level reached in the sampled fluid or tissue. Usually MRT stands for the average time that molecules of a dose stay in the body. A word on the half-life: it is the time needed for the level to fall by half in the phase considered. Low values mean fast loss, high ones slow loss.

The target of one series is T1, JAK2 (Homo sapiens, UniProt O60674, cells depend on it, form not given).
T1 construct: fused on or other part: N-terminal part of TEL (ETV6) as oligomerising partner; it is the second protein of the fusion and part of the key; P41212 (Transcription factor ETV6)
T1 sequence (O60674 849-1132 limits assumed, change not shown): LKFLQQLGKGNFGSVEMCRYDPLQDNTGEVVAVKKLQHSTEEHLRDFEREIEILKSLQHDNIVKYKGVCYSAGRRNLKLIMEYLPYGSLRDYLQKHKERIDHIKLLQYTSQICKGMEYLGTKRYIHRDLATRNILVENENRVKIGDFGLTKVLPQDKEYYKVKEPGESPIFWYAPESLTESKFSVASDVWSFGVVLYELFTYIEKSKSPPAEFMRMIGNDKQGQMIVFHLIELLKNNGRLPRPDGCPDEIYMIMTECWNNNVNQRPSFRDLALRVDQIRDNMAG
Description: JAK family kinase selectivity assay, Ba/F3-TEL-JAK2 cell proliferation. Format: cell-based. As to conditions: read-out: Ba/F3 Cell IC50 JAK2; Ba/F3-TEL-JAK2, 72 h. The text has this: (§1) There are four kinases in the JAK family, respectively TYK2, JAK1, JAK2 and JAK3. JAK family kinase genes were introduced into the wild-type murine B lymphocytes (BaF3), and four BaF3 engineered cell lines were constructed respectively (Ba/F3-FL-TYK2-E957D, Ba/F3-TEL-JAK1, Ba/F3-TEL-JAK2, Ba/F3-TEL-JAK3). The growth and proliferation of these engineered cell lines were not dependent on IL-3, but on exogenously transferred JAK family kinases.
(§2) In this experiment, the inhibitory effects of the compounds on the proliferation of four cell types, Ba/F3-FL-TYK2-E957D, Ba/F3-TEL-JAK1, Ba/F3-TEL-JAK2, and Ba/F3-TEL-JAK3 were tested, and apoptosis was detected, and the IC50 values were calculated. The inhibitory activities of the compounds against TYK2, JAK1, JAK2, and JAK3 kinases were evaluated based on the IC50 value, thus assessing the JAK family kinase selectivity of the compounds.
(§3) The tested compounds, powder and stored at room temperature, were prepared into 10 mM stock solution with DMSO and stored at −20° C. away from light for use.
(§4) Compounds were formulated into dilute solutions which was 1000 times of the final concentration. The compound was prepared into 20-times of final concentration by diluting the compound with culture medium. 2 ul of 1000-times compound was added per well to 98 ul of culture medium.
(§5) Cells (provided by Sundia Pharmaceutical Technology (Shanghai) Co., Ltd.) were resuspended and counted using an automated cell counter. The cell suspension was diluted to the desired density based on BaF3 seeding density of 2000 cells per well. Each well was plated with 95 ul of cells and incubated at 37° C. for stable equilibrium. […]
(§6) The cell plate was equilibrated to room temperature. […] Detected with SpectraMax Paradigm.
(§7) • (1) IC50 was calculated using GraphPad Prism 5. • (2) % Inh=(Max signal-Compound signal)/(Max signal-Min signal)×100. • (3) Max signal was the positive control well with only the same volume of DMSO as the compound. • (4) Min signal was the negative control well with only the culture medium.

A short description of series [1]: Solubility in water (at pH=7). It is filed as physicochemical. The text has this: Test Example 6: Solubility of the Compounds of the Invention in Water (at pH=7)
For series [2], the system named is IFN-α-induced STAT phosphorylation. The series is described as follows: IFN-α-induced STAT phosphorylation in human whole blood. As to conditions: human whole blood, 20 ng/ml IFN-α, pSTAT5 in CD3-positive cells; read-out: IC50, IFN-α inflammatory pathway (IFN-α-induced STAT phosphorylation). Format: cell-based. The text has this:
The cytokine receptor attached to TYK2 mediates the signaling of type 1 interferon (IFN-α), which has been identified as the most important inflammatory factor of the autoimmune system. Human whole blood is induced with IFN-α, and TYK2 from lymphocytes in whole blood triggered STAT phosphorylation, which mediated subsequent inflammatory signaling. Therefore, TYK2 inhibitors have an inhibitory effect on IFN-α signaling, and the stronger the TYK2 inhibitory activity, the lower the level of STAT phosphorylation, and the stronger the corresponding anti-inflammatory effect.
In this experiment, the ability of the compounds to inhibit IFN-α-induced STAT phosphorylation in human whole blood were tested, and the IC50 values were calculated. The anti-inflammatory activity of the compounds was evaluated at the tissue level and evaluation of the inhibitory activity of compounds on the IFN-α inflammatory pathway based on the IC50 value.
The tested compound, powder and stored at room temperature, prepared into 10 mM stock solution with DMSO and stored at −80° C. in the refrigerator.
1× Fix/Lysis solution preparation: 5× Fix/Lysis and ddH2O were diluted according to 1:4 and preheated in 37° C. incubator, waiting for use.
Flow cytometric staining buffer preparation: 1 g of bovine serum albumin (BSA) and 1 mL of EDTA (0.5 M) solution were added to 500 mL of phosphate buffer solution (PBS) and stored at 4° C. in the refrigerator.
Compound dilution solution: 0.5 g of bovine serum albumin (BSA) was added to 500 mL of phosphate buffer solution (PBS), and stored at 4° C. in the refrigerator.
50 μg/mL IFN-alpha was diluted to 400 ng/mL with Compound Diluent and set aside.
67.5 μL of human whole blood was added to a 96-well plate using a 300 μL electric volley gun. 3.5 μL of prepared test compound was added, mixed well and placed in the cell culture incubator. After 60 min incubation, 400 ng/mL IFN-α (Biolegend 592702, final concentration 20 ng/ml) was added. The obtained was mixed well and placed in the cell culture incubator to continue incubation for 15 min.
After cytokine stimulation, 5 ul of PE-CD3 (BD 555333) antibody was added to each well, mixed and incubation was continued at 4° C. in the refrigerator. At the end, whole blood was transferred to a 96-well deep-well plate using a volley gun, pre-warmed 1× Fix/Lysis solution was added, and cells were lysed and fixed for 12 minutes at 37° C. in an incubator. After being washed, 400 μL of Perm III solution was added, vortexed and incubated on ice for 30 minutes. Cells were then stained by 100 μL of APC-pSTAT5 (1:100) antibody for 50 min at room temperature. This was followed by flow-through instrumentation. The expression of pSTAT5 was quantified by median fluorescence intensity after gating the CD3-positive signaling cluster.

Series [3] in a line: In vivo pharmacokinetic experiment in rats (oral). Set-up: species or system SD rats. The following applies: 5 mg/kg. Here is the method: Experimental method: Healthy male SD rats were randomly grouped into 3 rats in each group and given the test compound orally. The rats were fasted for 12 h before the gavage experiment, and drank water freely, and were fed uniformly for 4 h after the administration of the compounds. Before (0 h) and 0.25, 0.5, 1.0, 2.0, 4.0, 6.0, 8.0 and 24 h after the administration of the test compounds, 0.2 mL of blood was collected from the jugular vein at the above set time points and placed in EDTA-K2 tubes, and the whole blood was collected and stored temporarily in an ice-water bath, and then centrifuged at 11,000 rpm for 5 min within 30 min, the plasma was separated, and frozen at −70° C. in a refrigerator for testing.

For series [4] the following is noted: dogs, 2 mg/kg, literature values; cited from earlier work.
The target of the next series is T2, JAK3 (Homo sapiens, UniProt P52333, cells depend on it, form not given).
T2 construct: fused on or other part: N-terminal part of TEL (ETV6) as oligomerising partner; P41212 (Transcription factor ETV6)
T2 sequence (P52333 822-1111 limits assumed, change not shown): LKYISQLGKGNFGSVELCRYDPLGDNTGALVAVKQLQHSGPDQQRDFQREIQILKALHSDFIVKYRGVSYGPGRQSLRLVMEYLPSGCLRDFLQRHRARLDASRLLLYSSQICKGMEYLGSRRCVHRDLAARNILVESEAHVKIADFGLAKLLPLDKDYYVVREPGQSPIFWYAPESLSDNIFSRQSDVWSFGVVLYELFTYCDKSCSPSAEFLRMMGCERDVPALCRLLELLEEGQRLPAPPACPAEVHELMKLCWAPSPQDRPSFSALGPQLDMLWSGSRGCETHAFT
The series is described as follows: JAK family kinase selectivity assay, Ba/F3-TEL-JAK3 cell proliferation. Format: cell-based. As to conditions: read-out: Ba/F3 Cell IC50 JAK3; Ba/F3-TEL-JAK3, 72 h.
Text: as §1, §2, §3, §4, §5, §6, §7

A further series deals with T3, TYK2 (Homo sapiens, UniProt P29597, E957D).
T3 construct: host or cells: Ba/F3 (murine B lymphocytes)
T3 sequence (P29597 whole entry E957D): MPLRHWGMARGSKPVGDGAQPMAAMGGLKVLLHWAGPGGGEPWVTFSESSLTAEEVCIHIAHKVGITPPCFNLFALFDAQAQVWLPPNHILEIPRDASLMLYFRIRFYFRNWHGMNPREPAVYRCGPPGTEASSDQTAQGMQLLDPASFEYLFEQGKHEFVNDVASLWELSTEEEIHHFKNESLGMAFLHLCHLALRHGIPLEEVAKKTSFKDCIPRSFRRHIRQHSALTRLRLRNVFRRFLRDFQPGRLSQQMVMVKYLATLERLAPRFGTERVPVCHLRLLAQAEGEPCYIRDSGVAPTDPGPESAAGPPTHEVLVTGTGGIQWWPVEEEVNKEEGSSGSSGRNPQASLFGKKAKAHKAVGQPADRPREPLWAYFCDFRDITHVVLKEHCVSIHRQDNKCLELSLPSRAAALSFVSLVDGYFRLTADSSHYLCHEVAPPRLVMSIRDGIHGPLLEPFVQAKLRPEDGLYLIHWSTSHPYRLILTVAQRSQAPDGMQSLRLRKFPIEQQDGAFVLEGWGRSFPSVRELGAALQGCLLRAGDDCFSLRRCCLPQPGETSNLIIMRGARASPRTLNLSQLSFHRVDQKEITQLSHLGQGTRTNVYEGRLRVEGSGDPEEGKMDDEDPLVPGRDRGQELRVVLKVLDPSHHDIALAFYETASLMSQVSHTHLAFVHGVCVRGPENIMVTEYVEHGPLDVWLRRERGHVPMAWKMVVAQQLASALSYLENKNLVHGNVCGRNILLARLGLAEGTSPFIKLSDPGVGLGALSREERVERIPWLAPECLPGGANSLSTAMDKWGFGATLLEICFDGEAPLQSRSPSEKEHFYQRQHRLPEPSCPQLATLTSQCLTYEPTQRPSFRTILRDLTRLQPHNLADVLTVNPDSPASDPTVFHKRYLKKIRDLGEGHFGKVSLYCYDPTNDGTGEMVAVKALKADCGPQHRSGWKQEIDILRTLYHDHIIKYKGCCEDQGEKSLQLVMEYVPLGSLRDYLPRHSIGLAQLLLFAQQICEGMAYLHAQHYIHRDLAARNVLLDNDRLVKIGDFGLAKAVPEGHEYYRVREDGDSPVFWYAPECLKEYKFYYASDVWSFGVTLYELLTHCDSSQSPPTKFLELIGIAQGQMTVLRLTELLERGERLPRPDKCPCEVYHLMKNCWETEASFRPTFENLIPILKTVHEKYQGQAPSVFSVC
Description: TYK2 kinase activity inhibition assay (Ba/F3-FL-TYK2-E957D cell proliferation, CellTiter-Glo). Format: cell-based. As to conditions: 72 h. On the procedure:
The TYK2 kinase gene was introduced into wild-type murine-derived B lymphocytes (BaF3) to construct the Ba/F3-FL-TYK2-E957D stable cell line.
In this experiment, the inhibitory effect of the compounds on the proliferation of Ba/F3-FL-TYK2-E957D cells were tested, apoptosis was detected, and the IC50 value was calculated. The inhibitory activity of the compounds against TYK2 kinase was evaluated based on the IC50 value.
as §3
Compounds were prepared into dilute solutions which was 1000 times of the final concentration. The compound was prepared into 20-times of the final concentration by diluting the compound with culture medium. 2 ul of 1000-times compound was added to per well to 98 ul of culture medium.
Cells (provided by Sundia Pharmaceutical Technology (Shanghai) Co., Ltd.) were resuspended and counted using an automated cell counter. The cell suspension was diluted to the desired density based on BaF3 seeding density of 2000 cells per well. Each well was plated with 95 ul of cells and incubated at 37° C. for stable equilibrium. 5 ul of 20-times compound was added to each well, with the wells to which the same volume of DMSO was added as a control.
The cell plate was equilibrated to room temperature. 40 ul CellTiter-Glo® Reagent was added to each well, shaken for 2 minutes and allowed to stand for 10 minutes. Detected with SpectraMax Paradigm.
• (1) IC50 was calculated using GraphPad Prism 5. • (2) % Inh=(Max signal−Compound signal)/(Max signal−Min signal)×100. • (3) Max signal was the positive control well with only the same volume of DMSO as the compound. • (4) Min signal was the negative control well with only the culture medium.
Background: ATP-based viability assays read luminescence as a measure of living cells.

Molecules are shown by their SMILES. ≈ marks a conversion by molar mass, not a printed value. Like-named read-outs stand apart in the source and are kept apart here.

Take `[2H]C([2H])([2H])NC(=O)c1nnc(NC(=O)C2CC2)cc1Nc1cccc(-c2ncn(C)n2)c1OC` [BMS-986165, Deucravacitinib, reference compound]: the GI50 at JAK2 was above 1000 nM. The Solubility in series [1] (pH 7, water, read-out: Solubility) worked out at 8.2 µg/mL (≈ 19.3 µM). Moreover, the IC50 in series [2] was found to be 23.2 nM. Also, in series [3], the AUC was found to be 2804 ngh/mL and the F is given as 28.5%. In series [3] (male, SD, rat, plasma), this compound gave a Cmax of 229 ng/mL, an MRT of 6.43 h and a half-life of 3.68 h. In series [4], the AUC was 1312 ngh/mL, the Cmax is on record as 222 ng/mL, the F was 35.5% and the T1/2 is given as 6.21 h. Moreover, the GI50 on JAK3 is above 1000 nM.
Turning to `CN=S(C)(=O)c1cc(C)cnc1Nc1cc(NC(=O)C2CC2)nnc1C(=O)NC` (centres unmarked) [Example 15, 6-(cyclopropylcarboxamido)-4-((3-(N,S-dimethylsulfoximino)-5-methylpyridin-2-yl)amino)-N-methylpyridazine-3-carboxamide], the IC50 in series [2] stood at 18 nM.
On the same count and under the same terms, the same measure for `CN=S(C)(=O)c1cc(F)c(N)nc1Nc1cc(NC(=O)C2CC2)nnc1C(=O)NC` (centres unmarked) [Example 22, 4-((6-amino-3-(N,S-dimethylsulfoximino)-5-fluoropyridin-2-yl)amino)-6-(cyclopropylcarboxamido)-N-methylpyridazine-3-carboxamide]: 13 nM.
For `CN=S(C)(=O)c1cc(Cl)c(N)nc1Nc1cc(NC(=O)C2CC2)nnc1C(=O)NC` (centres unmarked) [Example 23], the IC50 stood at 2 nM at TYK2 and 8.1 nM in series [2].
`CN=S(C)(=O)c1cc(Br)c(N)nc1Nc1cc(NC(=O)C2CC2)nnc1C(=O)NC` (centres unmarked) [Example 24, 4-((6-amino-5-bromo-3-(N,S-dimethylsulfoximino)pyridin-2-yl)amino)-6-(cyclopropylcarboxamido)-N-methylpyridazine-3-carboxamide]: the IC50 against TYK2 was 1.3 nM; in series [2] it was 7.5 nM.
Consider `CN=S(C)(=O)c1cc(C)c(N)nc1Nc1cc(NC(=O)C2CC2)nnc1C(=O)NC` (centres unmarked) [Example 26, 4-((6-amino-3-(N,S-dimethylsulfoximino)-5-methylpyridin-2-yl)amino)-6-(cyclopropylcarboxamido)-N-methylpyridazine-3-carboxamide], for which, in series [2], the IC50 amounted to 9.4 nM.
Turning to `CN=S(C)(=O)c1cc2c(Cl)c[nH]c2nc1Nc1cc(NC(=O)C2CC2)nnc1C(=O)NC` (centres unmarked) [Example 32, 4-((3-chloro-5-(N,S-dimethylsulfoximino)-1H-pyrrolo[2,3-b]pyridin-6-yl)amino)-6-(cyclopropylamido)-N-methylpyridazine-3-carboxamide], the values for the IC50 (on TYK2; in series [2]) were 0.62 nM and 16.1 nM, respectively.
On to `[2H]C([2H])([2H])NC(=O)c1nnc(NC(=O)C2CC2)cc1Nc1nc(N)c(Cl)cc1[S@@](C)(=O)=NC` [Example 38], for which the Solubility in series [1] was found to be 47 µg/mL (≈ 103 µM).

The record behind these values is patent US20250179022A1, “COMPOUND USED AS TYK2 INHIBITOR, PREPARATION METHOD THEREFOR, AND PHARMACEUTICAL USE THEREOF” (SHANGHAI ZHIGEN PHARMACEUTICAL & TECHNOLOGY CO. LTD., priority 2022, published 2025).
